In US20140235585A1, “SUBSTITUTED DIARYL DERIVATIVES AS SPHINGOSINE RECEPTOR MODULATORS” (ALLERGAN, INC., priority 2013, published 2014):

Target: T1, human S1P1 receptor (Homo sapiens, UniProt P21453)
T1 construct: expressed in transfected cells; membranes from cells stably expressing the S1P1 receptor
Experiment: GTP γ35S binding assay for S1P1 activity
Assay type: biochemical
Details: Activity potency: S1P1 receptor from GTP γ35S; membranes of cells stably expressing the S1P1 receptor; agonist-induced binding
Procedure: Compounds were tested for S1P1 activity using the GTP γ^35S binding assay. These compounds may be assessed for their ability to activate or block activation of the human S1P1 receptor in cells stably expressing the S1P1 receptor. GTP γ^35S binding was measured in the medium containing (mM) HEPES 25, pH 7.4, MgCl2 10, NaCl 100, dithitothreitol 0.5, digitonin 0.003%, 0.2 nM GTP γ^35S, and 5 μg membrane protein in a volume of 150 μl. Test compounds were included in the concentration range from 0.08 to 5,000 nM unless indicated otherwise. Membranes were incubated with 100 μM 5′-adenylylimmidodiphosphate for 30 min, and subsequently with 10 μM GDP for 10 min on ice. Drug solutions and membrane were mixed, and then reactions were initiated by adding GTP γ^35S and continued for 30 min at 25° C. Reaction mixtures were filtered over Whatman GF/B filters under vacuum, and washed three times with 3 mL of ice-cold buffer (HEPES 25, pH7.4, MgCl2 10 and NaCl 100). Filters were dried and mixed with scintillant, and counted for ^35S activity using a β-counter. Agonist-induced GTP γ^35S binding was obtained by subtracting that in the absence of agonist. Binding data were analyzed using a non-linear regression method. In case of antagonist assay, the reaction mixture contained 10 nM S1P in the presence of test antagonist at concentrations ranging from 0.08 to 5000 nM.

T1 sequence (P21453 whole entry): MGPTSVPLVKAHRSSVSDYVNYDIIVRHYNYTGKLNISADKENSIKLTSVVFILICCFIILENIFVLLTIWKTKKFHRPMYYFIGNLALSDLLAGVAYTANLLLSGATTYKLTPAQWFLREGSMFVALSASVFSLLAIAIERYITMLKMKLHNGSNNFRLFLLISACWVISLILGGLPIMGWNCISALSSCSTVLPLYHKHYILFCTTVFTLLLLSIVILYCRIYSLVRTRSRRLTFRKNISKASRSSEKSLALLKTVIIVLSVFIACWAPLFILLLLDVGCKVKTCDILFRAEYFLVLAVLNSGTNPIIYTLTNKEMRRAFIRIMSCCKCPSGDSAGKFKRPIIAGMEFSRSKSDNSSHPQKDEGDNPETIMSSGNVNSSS

EC50	Compound
31 nM	O=P(O)(O)CCCNCc1ccc(CC/N=c2\scc(-c3ccccc3)n2-c2ccccc2)cc1 [Compound 1, (3-{[4-(2-{[(2Z)-3,4-diphenyl-1,3-thiazol-2(3H)-ylidene]amino}ethyl)benzyl]amino}propyl)phosphonic acid]
658 nM	O=C(O)CCNCc1ccc(CC/N=c2\scc(-c3ccccc3)n2-c2ccccc2)cc1 [Compound 2, 3-{[4-(2-{[(2Z)-3,4-diphenyl-1,3-thiazol-2(3H)-ylidene]amino}ethyl)benzyl]amino}propanoic acid]
86 nM	O=P(O)(O)CCCNCc1ccc(CCSc2ncc(-c3ccccc3)n2-c2ccccc2)cc1 [Compound 3, {3-[(4-{2-[(1,5-diphenyl-1H-imidazol-2-yl)thio]ethyl}benzyl)amino]propyl}phosphonic acid]
